The record followed here is the NIST ThermoML archive (doi:10.1021/acs.jced.9b00560).

± gives the expanded uncertainty stated by the source.

The conditions of data set [1]: Crystal; DSC.
Data set [2] in a line: Molar enthalpy of transition or fusion. The conditions noted are these: Crystal; DSC.

Take `O=C1C=CC(=O)N1c1ccccc1Br` [1-(2-bromophenyl)-pyrrole-2,5-dione]: the Triple point temperature in data set [1] was determined as 357.24 ± 1.2 K. Moreover, the “Molar enthalpy of transition or fusion” value in data set [2] is 4.57 ± 0.215 kcal/mol.
